# Source: paper PMC3651166, “Differential Cytotoxic Activity of a Novel Palladium-Based Compound on Prostate Cell Lines, Primary Prostate Epithelial Cells and Prostate Stem Cells” (PLoS ONE, 2013)
# pIC50: −log10 of the molar value. Where two headings read alike, the source gives them in different places.
# Key:
# Format in all cases: cell-based, human
# [1] = test system: PNT2-C2, BPH-1, P4E6, PC-3 and LNCaP; assay: Flow cytometry cell cycle analysis, cell lines
# Experimental: Following drug treatment, floating cells in the media were pooled with adherent cells, which were collected by trypsinisation. Following centrifugation cells were resuspended in 0.5 ml PBS. Cells were fixed in 2 ml ice cold 70% ethanol, which was added in a dropwise fashion while vortexing. Cells were incubated on ice for 30 min then washed in 5 ml PBS and resuspended in 0.4 ml PBS. Following storage at 4°C overnight, 50 µl of RNAse (1 mg/ml) and 50 µl of propidium iodide (1 mg/ml) were added to the cells. Following incubation at 37°C for 30 min the cells were analysed for 2N and 4N DNA content on a flow cytometer (Cyan ADP Analyser, Beckman Coulter).
# [2] = test system: PCa Primary cells (Gl8/9); assay: MTS assay, primary cultures from prostate carcinoma Gleason 8/9
# Source text: (§1) Primary prostate epithelial cells were isolated from human tissue samples. The samples were collected with ethical permission from York District Hospital (York, UK) and Castle Hill Hospital (Cottingham, UK). Benign prostatic hyperplasia (BPH) and prostate cancer samples were obtained from TURP (transurethral resection of the prostate), radical prostatectomy (laparoscopic and open) and cystectomy operations. All patients gave written consent for their tissue to be used for research and all patient samples were anonymised. Permission was approved by the Local Research Ethical Committees, associated with York District Hospital and Castle Hill Hospital. Permission was administered by the Yorkshire and Humber Research Ethics Committee.
# (§2) Prostate epithelial cells were cultured as previously described in stem cell media (SCM) consisting of keratinocyte serum-free media (KSFM) with bovine pituitary extract (BPE) and epidermal growth factor (EGF), glutamine, stem cell factor (SCF), granulocyte macrophage colony stimulating factor (GM-CSF), leukaemia inhibitory factor (LIF) and cholera toxin. Cells were grown with STO feeder cells (irradiated at 60 Gy) on collagen I-coated plates.
# (§3) This assay was performed for the initial screening of the effect of the Pd complex on the cell lines and the whole cell population of primary cultures. The CellTiter 96® Aqueous One Solution Cell Proliferation Assay kit (G3580, Promega, Madison, WI, USA) was used and the manufacturer’s instructions were followed. Briefly, after treating cells that were seeded at a density of 5,000 cells per well in a 96-well plate in triplicate for a desired period (24 h, 48 h, 72 h), 20 µL of reagent was added to each well. Following 2.5 h incubation at 37°C, the absorbance was read at 485 nm using a plate reader (PolarStar Optima, BMG Labtech, UK). Percent viability was calculated using the formula (% Viability = [(Sample Absorbance/Control Absorbance)]×100.
# (§4) MTS and ATP assays were performed in triplicate and data presented as the mean +/− standard deviation. IC50 values (Table 3 and Table 4) were calculated from graphs of transformed data following application of the nonlinear regression (curve fit) that represents the log(inhibitor) ‘v’ normalized response (GraphPad Prism software) (Supplementary Figures S1 and S2). For significance calculations, the Wilcoxon rank sum test was used (Sigmaplot). Flow cytometry analysis was carried out in triplicate and results are presented as an average with error bars indicating the standard error.
# [3] = test system: PNT1A, PNT2-C2, BPH-1, PC-3, LNCaP, P4E6; assay: MTS assay, panel of six prostate cell lines; details: 100 µM, 72 h
# Experimental: (§5) In this study, six different prostate cell lines (PNT1A, PNT2-C2, BPH-1, PC-3, LNCaP, P4E6) were used (Table 1). These cell lines encompass the spectrum of cellular differentiation status (basal, intermediate and luminal phenotypes), as well as the spectrum of normal, early cancer and late cancer. BPH-1 is derived from benign prostate hyperplasia (BPH), while PNT2-C2 and PNT1A are derived from normal prostate. PC-3, LNCaP and P4E6 are cancer cell lines. LNCaP, PNT2-C2, PNT1A were grown in RPMI medium with 10% FCS (foetal calf serum); PC-3 was grown in Ham’s F-12 medium with 7% FCS; BPH-1 was grown in RPMI medium with 5% FCS; P4E6 was grown in KSFM (Keratinocyte serum free medium) with 2% FCS. No antibiotics were used in any media. The cells were incubated at 37°C in a humidified atmosphere containing 5% CO2.
# as §3, with “Briefly, after treating cells that were seeded at a density of 5,000 cells per well in a 96-well plate in triplicate for a desired period (24 h, 48 h, 72 h), 20 µL of reagent was added to each well.” left out, “Absorbance)]×100. […]” for “Absorbance)]×100.”
# P4E6, PC-3, LNCaP = assay: MTS assay, average over cancer cell lines; details: average of P4E6, PC-3, LNCaP
# Experimental: as §5, §3
# as §4, with “Flow cytometry analysis was carried out in triplicate and results are presented as an average with error bars indicating the standard error.” left out
# PCa Primary cells (Gl7) = assay: MTS assay, primary cultures from prostate carcinoma Gleason 6/7
# Source text: as §1, §2, §3, §4
# PNT1A, PNT2-C2, BPH-1 = assay: MTS assay, average over normal/benign cell lines; details: average of PNT1A
# Experimental: as §5, §3
# as §4, with “Flow cytometry analysis was carried out in triplicate and results are presented as an average with error bars indicating the standard error.” left out
substance,measurement,setting,value
[PdCl(terpy)](sac)⋅2 H2O [Pd complex],sub-G1 DNA content (cell death),[1]; PC3 cells,almost no change
same,sub-G1 DNA content (cell death),[1]; all cell lines except PC3,increase in cells with sub-G1 DNA content
same,S and G2 peaks,"[1]; normal cells (BPH-1, PNT2-C2)",reduction in the S and G2 peaks
same,pIC50,"[2]; PCa primary cells (Gl8/9), sample 14912, 72 h, read-out: IC50",4.19
same,pIC50,"[2]; PCa primary cells (Gl8/9), sample 16312, 72 h, read-out: IC50",4.15
same,pIC50,"[2]; PCa primary cells (Gl8/9), sample 22912, 72 h, read-out: IC50",4.33
same,pIC50,"[2]; average of PCa primary cells (Gl8/9), 72 h, read-out: IC50 AVERAGE",4.22
same,growth inhibition of all cell lines,[3],almost completely
same,pIC50,"P4E6, PC-3, LNCaP; 24 h",4.12
same,pIC50,"P4E6, PC-3, LNCaP; 48 h",4.63
same,pIC50,"P4E6, PC-3, LNCaP; 72 h",4.94
same,pIC50,"PCa Primary cells (Gl7); PCa primary cells (Gl7), sample 06211rb, 72 h, read-out: IC50",4.96
same,pIC50,"PCa Primary cells (Gl7); PCa primary cells (Gl7), sample 06411lb, 72 h, read-out: IC50",5.28
same,pIC50,"PCa Primary cells (Gl7); PCa primary cells (Gl7), sample 06411ra, 72 h, read-out: IC50",5.42
same,pIC50,"PCa Primary cells (Gl7); PCa primary cells (Gl7), sample 06611lb, 72 h, read-out: IC50",4.88
same,pIC50,"PCa Primary cells (Gl7); PCa primary cells (Gl7), sample 06711rb, 72 h, read-out: IC50",5.08
same,pIC50,"PCa Primary cells (Gl7); PCa primary cells (Gl7), sample 07011la, 72 h, read-out: IC50",5.27
same,pIC50,"PCa Primary cells (Gl7); PCa primary cells (Gl7), sample 07011lb, 72 h, read-out: IC50",5.22
same,pIC50,"PCa Primary cells (Gl7); PCa primary cells (Gl7), sample 07311ra, 72 h, read-out: IC50",5.27
same,pIC50,"PCa Primary cells (Gl7); PCa primary cells (Gl7), sample 22412, 72 h, read-out: IC50",5.20
same,pIC50,"PCa Primary cells (Gl7); average of PCa primary cells (Gl7; Gleason 6/7), 72 h, read-out: IC50 AVERAGE",5.15
same,reduction of cell viability compared to etoposide,"PCa Primary cells (Gl7); malignant samples, both at 25 µM, 72 h, median values",10.66 fold
same,pIC50,"PNT1A, PNT2-C2, BPH-1; PNT2-C2, BPH-1, 24 h",4.80
same,pIC50,"PNT1A, PNT2-C2, BPH-1; PNT2-C2, BPH-1, 48 h",5.17
same,pIC50,"PNT1A, PNT2-C2, BPH-1; PNT2-C2, BPH-1, 72 h",6.42
